20 compounds from patent US7273880B2, “Selective NPY (Y5) antagonists” (H. Lunbeck A/S, priority 1999, dated 2007) can be followed below.

The structures appear in SMILES notation. Where a name gives a salt, the structure may show the parent alone.

Tested on in the first data set: not given
Assay: not given
Details: not given
What is called melting point is the temperature, or range, at which the solid turns liquid. On to `COc1ccc2c(c1)CCCc1sc(NC[C@H]3CC[C@H](NS(C)(=O)=O)CC3)nc1-2` (as salt: salt) [Example 71, trans-1-Aza-4,5-dihydro-8-methoxy-2-(4-methylsulfonyl-amino)cyclohexylmethylamino-3-thia-benzo[e]azulene], for which the melting point lay within 94 to 97 °C.

In the case of `COc1ccc2c(c1)CCCc1sc(N[C@H]3CC[C@H](CNS(=O)(=O)C(C)C)CC3)nc1-2` (as salt: salt) [Example 73, trans-1-Aza-4,5-dihydro-2-(4-isopropylsulfonyl-aminomethyl)-cyclohexylamino-8-methoxy-3-thia-benzo[e]-azulene], the melting point lay within 87 to 89 °C.

For `COCC(=O)N[C@H]1CC[C@H](CNc2nc3c(s2)CCOc2ccccc2-3)CC1` (as salt: HCl) [Example 84, N1-{4-[(4,5-dihydrobenzo[2,3]oxepino[4,5-d][1,3]thiazol-2-ylamino)methyl]cyclohexyl}-2-methoxyacetamide], the melting point was in the range of 234 to 237 °C.

`COc1ccc(C)cc1S(=O)(=O)NC[C@H]1CC[C@H](Nc2nc3c(s2)CCOc2ccccc2-3)CC1` (as salt: HCl) [Example 48, trans-1-Aza-4,5-dihydro-2-{4-(2-methoxy-5-methyl)phenyl-sulfonylaminomethyl}cyclohexylamino-6-oxa-3-thia-benzo[e]azulene]: the melting point is 100 to 105 °C (dec.).

Compound `O=S(=O)(N[C@H]1CC[C@H](Nc2nc3c(s2)CCCc2ccc(F)cc2-3)CC1)c1cccnc1` (as salt: salt) [Example 54, trans-1-Aza-9-fluoro-4,5-dihydro-2-(4-(3-pyridyl-sulfonylamino)cyclohexyl)amino-3-thia-benzo[e]azulene] yielded a melting point of 165 to 167 °C.

Take `O=S(=O)(NC[C@H]1CC[C@H](Nc2nc3c(s2)CCCc2ccc(F)cc2-3)CC1)c1cccnc1` (as salt: salt) [Example 59, trans-1-Aza-9-fluoro-4,5-dihydro-2-(4-(3-pyridyl)-sulfonylaminomethyl)cyclohexylamino-3-thia-benzo[e]-azulene]: the melting point fell in the range of 127 to 129 °C.

Compound `O=S(=O)(CC(F)(F)F)NCCCCNc1nc2c(s1)CCCc1ccc(F)cc1-2` (as salt: TFA) [Example 39, 1-Aza-9-fluoro-4,5-dihydro-2-(4-(2,2,2-trifluoroethyl)-sulfonylamino)butylamino-3-thia-benzo[e]azulene] registered a melting point of 140 to 141 °C.

`COCCN(C=O)[C@H]1CC[C@H](CNc2nc3c(s2)CCOc2ccccc2-3)CC1` (as salt: HCl) [Example 86, N-{4-[(4,5-dihydrobenzo[2,3]oxepino[4,5-d][1,3]thiazol-2-ylamino)methyl]cyclohexyl}-N-(2-methoxyethyl)formamide]: the melting point fell in the range of 164 to 166 °C.

`O=S(=O)(NCCCCCNc1nc2c(s1)CCCc1ccc(F)cc1-2)c1cccnc1` (as salt: salt) [Example 55, 1-Aza-9-fluoro-4,5-dihydro-2-(5-(3-pyridyl)sulfonyl-amino)pentylamino-3-thia-benzo[e]azulene] returned a melting point of 84 to 86 °C.

With `COc1cccc2c1OCCc1sc(NC[C@H]3CC[C@H](NS(=O)(=O)N(C)C)CC3)nc1-2` (as salt: HCl) [Example 66, trans-1-Aza-4,5-dihydro-7-methoxy-2-{4-dimethylamino-sulfonylamino}cyclohexylmethylamino-6-oxa-3-thia-benzo[e]azulene], the melting point was 206 to 208 °C.

In a further data set the target is T1, human Y5 receptor (hNPY-5) (Homo sapiens, UniProt Q15761).
T1 construct: expressed in transfected cells; host or cells: mouse fibroblast LM(tk-) cells, e.g. L-hY5-7 (ATCC CRL-11995)
T1 sequence (Q15761 1-445): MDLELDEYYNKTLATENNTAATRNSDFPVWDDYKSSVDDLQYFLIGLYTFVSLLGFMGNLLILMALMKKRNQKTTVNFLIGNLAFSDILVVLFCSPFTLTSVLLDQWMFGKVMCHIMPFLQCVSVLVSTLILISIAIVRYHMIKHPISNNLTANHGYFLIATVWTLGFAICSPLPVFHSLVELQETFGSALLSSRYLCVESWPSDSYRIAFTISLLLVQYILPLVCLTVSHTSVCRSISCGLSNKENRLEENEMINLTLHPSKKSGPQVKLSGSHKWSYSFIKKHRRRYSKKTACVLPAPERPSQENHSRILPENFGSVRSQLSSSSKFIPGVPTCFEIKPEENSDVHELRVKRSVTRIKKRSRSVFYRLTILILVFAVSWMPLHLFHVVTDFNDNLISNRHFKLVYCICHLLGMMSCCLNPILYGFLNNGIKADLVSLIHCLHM
Put plainly: Radioligand binding to membranes, cloned human Y5 receptor. The note with it: cloned human NPY Y5 receptor, radioligand competition binding; Tables 1-3; read-out: Ki, nM hNPY-5. On the procedure: Binding of the compounds of the present invention to human Y1, Y2, Y4, and Y5 receptors was evaluated using stably transfected 293 or LM(tk-) cells as described above. Stably transfected cell lines which may be used for binding assays include, for example, for the human Y1 receptor, 293-hY1-5 (deposited Jun. 4, 1996, under ATCC Accession No. CRL-12121), for the human Y2 receptor, 293-hY2-10 (deposited Jan. 27, 1994, under ATCC Accession No. CRL-11537), for the human Y4 receptor, L-hY4-3 (deposited Jan. 11, 1995, under ATCC Accession No. CRL-11779), and for human Y5 receptor, L-hY5-7 (deposited Nov. 15, 1995, under ATCC Accession No. CRL-11995). These cell lines were deposited with the American Type Culture Collection (ATCC), 10801 University Blvd., Manassas, Va. 20110-2209, U.S.A. under the provisions of the Budapest Treaty for the International Recognition of the Deposit of Microorganisms for the Purposes of Patent Procedure.
Membranes were harvested from COS-7 cells 48 hours after transient transfection. Adherent cells were washed twice in ice-cold phosphate buffered saline (138 mM NaCl, 8.1 mM Na2HPO4, 2.5 mM KCl, 1.2 mM KH2PO4, 0.9 mM CaCl2, 0.5 mM MgCl2, pH 7.4) and lysed by sonication in ice-cold sonication buffer (20 mM Tris-HCl, 5 mM EDTA, pH 7.7). Large particles and debris were cleared by low speed centrifugation (200×g, 5 min, 4° C.). Membranes were collected from the supernatant fraction by centrifugation (32,000×g, 18 min, 4° C.), washed with ice-cold hypotonic buffer, and collected again by centrifugation (32,000×g, 18 min, 4° C.). The final membrane pellet was resuspended by sonication into a small volume of ice-cold binding buffer (˜1 ml for every 5 plates: 10 mM NaCl, 20 mM HEPES, 0.22 mM KH2PO4, 1.26 mM CaCl2, 0.81 mM MgSO4, pH 7.4). Protein concentration was measured by the Bradford method (Bradford, 1976) using Bio-Rad Reagent, with bovine serum albumin as a standard. Membranes were held on ice for up to one hour and used fresh, or flash-frozen and stored in liquid nitrogen.
Membranes were prepared similarly from 293, LM(tk-), and NIH-3T3 cells. To prepare membranes from baculovirus infected cells, 2×10^7 Sf21 cells were grown in 150 mm tissue culture dishes and infected with a high-titer stock of hY5BB3. Cells were incubated for 2-4 days at 27° C., no CO2 before harvesting and membrane preparation as described above.
Membrane suspensions were diluted in binding buffer supplemented with 0.1% bovine serum albumin to yield an optimal membrane protein concentration so that ^125I-PYY (or alternative radioligand such as ^125I-NPY, ^125I-PYY3-36, or ^125I-[Leu^31Pro^34]PYY) bound by membranes in the assay was less than 10% of ^125I-PYY (or alternative radioligand) delivered to the sample (100,000 dpm/sample=0.08 nM for competition binding assays). ^125I-PYY (or alternative radioligand) and peptide competitors were also diluted to desired concentrations in supplemented binding buffer. Individual samples were then prepared in 96-well polypropylene microtiter plates by mixing 125I-PYY (25 μL) (or alternative radioligand), competing peptides or supplemented binding buffer (25 μL), and finally, membrane suspensions (200 μL). Samples were incubated in a 30° C. water bath with constant shaking for 120 min. Incubations were terminated by filtration over Whatman GF/C filters (pre-coated with 1% polyethyleneimine and air-dried before use), followed by washing with 5 mL of ice-cold binding buffer. Filter-trapped membranes were impregnated with MeltiLex solid scintillant (Wallac, Turku, Finland) and counted for ^125I in a Wallac Beta-Plate Reader. Alternatively, incubations were carried out in GF/C filter plates (pre-coated with 1% polyethyleneimine and air-dried before use), followed by vacuum filtration and three washes of 300 μL of ice-cold binding buffer. 50 μL of UltimaGold (Packard) scintillant were added and counted for ^125I in a Wallac MicroBeta Trilux. […]
In general terms: In a radioligand displacement assay an active substance lowers the binding of a labelled ligand.
Broadly, the Ki is a dissociation constant, usually derived from enzyme kinetics or from competition with a known ligand. For `O=S(=O)(NC[C@H]1CC[C@H](Nc2nc3c(s2)CCCc2ccc(F)cc2-3)CC1)C(F)(F)F` [Example 41, trans-1-Aza-9-fluoro-2-{4-trifluoromethylsulfonyl-aminomethyl}cyclohexylamino-4,5-dihydro-3-thiabenzo[e]-azulene], the Ki is 30 nM.

Regarding `CCOC(=O)NC[C@H]1CC[C@H](Nc2nc(-c3cccc(OC)c3)cs2)CC1` [Example 94, trans-2-(4-Ethoxycarbonylaminomethyl)cyclohexylamino-4-(3-methoxy)phenylthiazole hydrogen chloride], the inhibition constant Ki came out at 240 nM.

`CC(=O)NC[C@H]1CC[C@H](Nc2nc3c(s2)CCCc2ccc(F)cc2-3)CC1` [Example 81, N1-({4-[(9-fluoro-5,6-dihydro-4H-benzo[6,7]-cyclohepta-[d][1,3]thiazol-2-yl)amino]cyclohexyl}-methyl)acetamide]: the Ki came to 62 nM.

In the case of `CN(C)S(=O)(=O)NC[C@H]1CC[C@H](CNc2nc3c(s2)CCSc2ccc(F)cc2-3)CC1` [Example 106], the inhibition constant Ki is 2.6 nM.

Take `CN(C)S(=O)(=O)NCCCCNc1nc2c(s1)CCCc1ccc(F)cc1-2` [Example 6, 1-Aza-9-fluoro-4,5-dihydro-2-(4-(dimethyl-aminosulfonyl-amino)butyl)amino-3-thia-benzo[e]-azulene]: the Ki amounted to 3.1 nM.

Turning to `CCC(=O)NC[C@H]1CC[C@H](Nc2nc3c(s2)CCCc2ccc(F)cc2-3)CC1` [Example 75, trans-1-Aza-4,5-dihydro-2-(4-ethylcarbonylamino-methyl)-cyclohexylamino-9-fluoro-3-thia-benzo[e]-azulene], the Ki was 36 nM.

`CC(C)(C)OC(=O)NC[C@H]1CC[C@H](Nc2nc3c(s2)CCSc2ccccc2-3)CC1` [Example 100, tert-Butyl N-{[4-(4,5-Dihydrobenzo[2,3]thiepino[4,5-d][1,3]thiazol-2-ylamino)cyclohexyl]methyl}carbamate]: the inhibition constant Ki amounted to 24 nM.

On to `COc1ccc(S(=O)(=O)N[C@H]2CC[C@H](Nc3nc4c(s3)CCCc3ccc(F)cc3-4)CC2)cc1` [Example 36, trans-1-Aza-9-fluoro-4,5-dihydro-2-(4-(4-methoxy-phenyl)sulfonylamino)cyclohexylamino-3-thia-benzo[e]-azulene], for which the inhibitory constant (Ki) was 60 nM.

Consider `COCC(=O)NCc1ccc(Nc2nc3c(s2)CCCc2ccc(F)cc2-3)cc1` [Example 89, N1-{4-[(9-fluoro-5,6-dihydro-4H-benzo[6,7]cyclohepta-[d][1,3]thiazol-2-yl)amino]benzyl}-2-methoxyacetamide], for which the inhibition constant Ki was 9.2 nM.

On to `O=S(=O)(NCCCCNc1nc2c(s1)CCCc1ccc(F)cc1-2)c1cccc2ccccc12` [Example 8, 1-Aza-9-fluoro-4,5-dihydro-2-(4-(1-naphthyl)sulfonyl-amino)butylamino-3-thia-benzo[e]azulene], for which the inhibitory constant (Ki) is 94 nM.
